Tests used:
[1] = system: CT26 cells; assay: CT26 colorectal tumor growth in BALB/C mice (in-vivo study); conditions: CT26 s.c. in BALB/C mice
Procedure: For in-vivo studies 1×10^6 CT26 cells (ATCC® CRL2639™) a colorectal cancer cell line, in 0.2 mL Hank's Balanced Salt Solution (HBSS) is implanted by subcutaneous injection in the hind leg of 6-8 weeks of age BALB/C female mice (Harlan Laboratories). Mice are fed ad libitum on normal chow. Treatment is initiated on day 6 of tumor implantation with oral administration (gavage) of Compound A in 1% Sodium carboxymethyl cellulose (Na-CMC) in 0.25% Tween® 80, or intraperitoneal injection of mouse anti PD-L1 antibody (10F.9G2, BioXcell Catalogue #: BE0101) in phosphate buffered saline (PBS) or intraperitoneal injection of mouse anti PD-1 (CD279) antibody (Clone: RMP1-14, BioXCell #: BP0146-R) in PBS or their respective vehicle in 0.2 mL volume. Compound A is administered at 8 mg/kg on a Monday, Wednesday and Friday schedule for 2 weeks and 10F.9G2 and RMP1-14 are administered at 250 μg/dose/animal on Monday and Thursday schedule for 2 weeks.
Tumor growth and body weight are monitored over time to evaluate efficacy and signs of toxicity. Bidimensional measurements of tumors are performed twice a week and tumor volumes are calculated based on the following formula: (Tumor Volume)=[(L)×(W2)×(Π/6)] where L is mid-axis length and W is mid-axis width. Tumor volume data are transformed to a log scale to equalize variance across time and treatment groups. The log volume data are analyzed with a two-way repeated measures analysis of variance by time and treatment using the MIXED™ procedures in SAS™ software (version 8.2). The correlation model for the repeated measures is spatial power. Test Groups are: • 1: 1% CMC/0.25% Tween® 80/0.05% Antifoam, Monday-Wednesday-Friday ×2, PO/PBS Monday-Thursday ×2, IP • 2: Compound A, 8 mg/kg, Monday-Wednesday-Friday ×2, PO • 3: Compound B (PD-L1), 250 μg/dose, Monday-Thursday ×2, IP • 4: Compound C (PD-1), 250 μg/dose, Monday-Thursday ×2, IP • 5: Compound A, 8 mg/kg, Monday-Wednesday-Friday ×2, PO/Compound B (PD-L1), 250 μg/dose, Monday-Thursday ×2, IP • 6: Compound A, 8 mg/kg, Monday-Wednesday-Friday ×2, PO/Compound C (PD-1), 250 μg/dose, Monday-Thursday ×2, IP
Tumor growth and body weight are monitored over time to evaluate efficacy and signs of toxicity. Bidimensional measurements of tumors are performed twice a week and tumor volumes are calculated based on the following formula: (Tumor Volume)=[(L)×(W2)×(Π/6)] where L is mid-axis length and W is mid-axis width. Tumor volume data are transformed to a log scale to equalize variance across time and treatment groups. The log volume data are analyzed with a two-way repeated measures analysis of variance by time and treatment using the MIXED™ procedures in SAS™ software (version 8.2). The correlation model for the repeated measures is spatial power. Treated groups are compared to the control group at each time point. The MIXED™ procedure is also used separately for each treatment group to calculate adjusted means and standard errors at each time point. Both analyses account for the autocorrelation within each animal and the loss of data that occurs when animals with large tumors are removed from the study early. […] Antitumor activity is expressed as a tumor volume percentage for treatment versus control (% T/C) and is calculated by comparing tumor volume in the treatment group with vehicle treatment group. Percentage T/C and statistical significance value (p value) for the treatment groups is measured essentially as described above and summarized in Table 2. […]

[2] = system: CT-26 tumors; assay: Gene expression analysis (Taqman) of excised CT-26 tumors; type: in vivo, mice; conditions: all genes of Table 4; single-agent groups versus vehicle; result in words
Procedure: (§1) For mechanism analysis CT-26 tumors are excised on day 20, 1 h following the last dose of Compound A. A small piece of approximately 30 mg is cut and stored in RNALater for gene expression analysis. The remainder of the tumor is processed for the flow-cytometry analysis.
For RNA isolation from the tumor, approximately 30 mg tissue is cut. RNA is extracted by RNeasy Protocol (version January 2002) using RNeasy 96-well Column Plates (Qiagen, Valencia, Calif.; Cat #74182) and QiaVac 96 vacuum manifold at 15 psi vacuum. […] The total RNA concentration is estimated using Nanodrop ND-1000 spectrophotometer by absorbance at 260 nm (Thermo Scietific). […]
For Taqman procedure, 100 μL of cDNA is diluted with 200 μL RNase/DNase-free water in 96-Well Clear Optical Reaction Plate (Applied Biosystems, Cat #4306737) and transferred to 2 mL RNase/DNase-free tubes (Ambion, Cat #AM12475). […] Samples are dispensed with Tecan Automated Pipetting Workstation (Tecan US Inc., Durham, N.C.; Model: Freedom Evo-100 or Evo-150), and plates are read in ABI Prism 9700HT SDS plate reader with following protocol settings: 50° C. for 2 minutes, 95° C. for 10 minutes, and 40 cycles at 95° C. for 15 seconds and 60° C. for 1 minute. […] All calculations are done in Microsoft Excel spreadsheet template, and % inhibition is calculated from control values. […]

[3] = system: CT-26 tumors; assay: Flow-cytometry of intra-tumoral immune cell populations in excised CT-26 tumors; type: in vivo, mice; conditions: tumors excised day 20, 1 h after last dose of Compound A
Procedure: as §1
Tumors are weighed and then homogenized in 5 ml 4° C. complete media (CM; RPMI-1640/10% fetal bovine serum (FBS)) through 100 μm strainers to produce single-cell suspensions. Cells are centrifuged for 5 minutes at 466×g, 4° C.; the pellets are resuspended in fresh CM (0.5-3 ml, depending on pellet volume), and cells are counted using a Vi-Cell XR (Beckman Coulter). An equal number of total cells per tumor (10×10^6) are transferred to 96-well V-bottom microplates (Fisher Scientific). Cells are centrifuged (700×g, 3 min., 4° C.) and resuspended in 100 μl 1 μg/ml Fc block in CM (anti-CD16/32 (clone 2.4G2); Tonbo Biosciences) for 30 minutes on ice. Cells are centrifuged (700×g, 3 minutes, 4° C.) and resuspended in 100 μl of one of several fluochrome-conjugated surface marker antibody cocktails [anti-CD3 (clone 145-2C11), -Ly-6G (clone 1A8), -CD11c (clone HL3), -CD45 (clone 30-F11) (BD Biosciences), anti-CD8 (clone 53-6.7) (Biolegend), -CD11b (clone M1/70), -CD3 (clone 145-2C11), -F4/80 (clone BM8), -CD4 (clone RM4-5), (eBioscience)] containing a fixable viability dye (eBioscience) and incubated for 30 minutes on ice covered from light. Cells are twice washed with 200 μl CM and centrifuged (700×g, 3 min., 4° C.). Following the second wash, cells are fixed, permeabilized, and intracellularly stained for Ki67 (clone SolA15) (eBioscience) using the Foxp3/Transcription Factor Staining Buffer Set (eBioscience), following the manufacturer's instructions with noted modifications. Briefly, cells are fixed in 100 μl/well for 30 min., followed by 100 μl/well permeabilization buffer with or without intracellular stain (depending on the staining panel used) for 30 min. Cells are twice washed with 200 μl 1× permeabilization buffer and centrifuged (700×g, 3 min., 4° C.), followed by resuspension in PBS with 2% FBS. 1×10^6 events, excluding debris, are captured for each sample using a 10-channel LSR II cytometer (BD Biosciences) and analyzed using FlowJo V.10.0.8 software. Data is represented as percent of tumor cells, with noted exceptions where represented as percent of parent population. Post-hoc t-test following ANOVA is used for statistical analysis between vehicle and treatment groups.

## C[C@H](NC(=O)CCC(F)(F)F)C(=O)N[C@@H]1C(=O)N(CCO)c2ncccc2-c2ccccc21 [Compound A, 4,4,4-trifluoro-N-[(1S)-2-[[(7S)-5-(2-hydroxyethyl)-6-oxo-7H-pyrido[2,3-d][3]benzazepin-7-yl]amino]-1-methyl-2-oxo-ethyl]butanamide]
[1]; study day 8
  Tumor volume: Geometric Mean: 47.96 mm^3
[1]; study day 10
  Tumor volume: Geometric Mean: 88.80 mm^3
[1]; study day 14
  Tumor volume: Geometric Mean: 376.50 mm^3
[1]; study day 17
  Tumor volume: Geometric Mean: 751.13 mm^3
[1]; study day 20
  Tumor volume: Geometric Mean: 1227.40 mm^3
[2]
  change in the expression of genes examined: No significant change
[3]
  CD4+/Ki67+ (% of CD4+) Mean % ± SEM: 7.6 ± 0.5%
  CD8+/Ki67+ (% of CD8+) Mean % ± SEM: 23.1 ± 2.0%
  CD11b + F4/80+ (% of Tumor) Mean % ± SEM: 0.89 ± 0.15%
  CD11b + Ly-6G + F4/80− (% of Tumor) Mean % ± SEM: 1.12 ± 0.08%
  CD11b+ (% of Tumor) Mean % ± SEM: 2.9 ± 0.2%
  CD11c+ (% of Tumor) Mean % ± SEM: 0.42 ± 0.06%

— patent publication US11826317B2, “Combination therapy with notch and PD-1 or PD-L1 inhibitors” (Eli Lilly and Company, priority 2016, dated 2023)
